Results taken from PubChem BioAssay AID1963430 (Molecular Pharmacology Branch, DTP, NCI, 2024).
“And” between values parts separate entries of the source, which are not always exact repeats. Identical values can stand only once. Values belong to the compound of their own block, whether it stands above or below them.

Tested on: 521955-158-R2-J5-PDC complex spheroid growth, % test/control
Assay: Anticancer human tumor 521955-158-R2-J5-PDC patient-derived pancreatic carcinoma cell line growth inhibition [Asc]
Conditions: for viability, T/C: stronger effect = lower value
In short: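 Complex solid-tumor spheroids incorporating human endothelial and mesenchymal stem cells received single agents or combinations over half-log dilution ranges anchored to clinical Cmax.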

[1] = curve of first compound, second compound 0.01 µM
[2] = curve of first compound, second compound 0.0316 µM
[3] = curve of first compound, second compound 0.1 µM
[4] = curve of first compound, second compound 0.316 µM
[5] = curve of first compound, second compound 1 µM
[6] = second compound 0.01 µM, first compound 0.0316 µM
[7] = second compound 0.01 µM, first compound 0.1 µM
[8] = second compound 0.01 µM, first compound 0.316 µM
[9] = second compound 0.01 µM, first compound 1 µM
[10] = second compound 0.0316 µM, first compound 0.0316 µM
[11] = second compound 0.0316 µM, first compound 0.1 µM
[12] = second compound 0.0316 µM, first compound 0.316 µM
[13] = second compound 0.0316 µM, first compound 1 µM
[14] = second compound 0.1 µM, first compound 0.0316 µM
[15] = second compound 0.1 µM, first compound 0.1 µM
[16] = second compound 0.1 µM, first compound 0.316 µM
[17] = second compound 0.1 µM, first compound 1 µM
[18] = second compound 0.316 µM, first compound 0.0316 µM
[19] = second compound 0.316 µM, first compound 0.1 µM
[20] = second compound 0.316 µM, first compound 0.316 µM
[21] = second compound 0.316 µM, first compound 1 µM
[22] = second compound 1 µM, first compound 0.0316 µM
[23] = second compound 1 µM, first compound 0.1 µM
[24] = second compound 1 µM, first compound 0.316 µM
[25] = second compound 1 µM, first compound 1 µM
[26] = second compound 0.1 µM, first compound 0.00316 µM
[27] = second compound 0.1 µM, first compound 0.01 µM
[28] = second compound 0.316 µM, first compound 0.00316 µM
[29] = second compound 0.316 µM, first compound 0.01 µM
[30] = second compound 1 µM, first compound 0.00316 µM
[31] = second compound 1 µM, first compound 0.01 µM
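Also: spheroids exposed to agents for 7 days before readout.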
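For viability, T/C in this document: 100% = DMSO vehicle control viability.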

IC50 [1]: > 10 µM
IC50 [2]: > 10 µM
IC50 [3]: > 10 µM
IC50 [4]: > 10 µM
IC50 [5]: > 10 µM
Structure (SMILES): C=CC(=O)N1CCN(c2nc(=O)n(-c3c(C)ccnc3C(C)C)c3nc(-c4c(O)cccc4F)c(F)cc23)C(C)C1 (configuration not stated) + CNC(C)C(=O)NC1CN(S(=O)(=O)c2cccc(S(=O)(=O)N3CCC4CCC(C(=O)NC(c5ccccc5)c5ccccc5)N4C(=O)C(NC(=O)C(C)NC)C3)c2)CCC2CCC(C(=O)NC(c3ccccc3)c3ccccc3)N2C1=O
viability, T/C [6]: 91.1%
viability, T/C [7]: 105%
viability, T/C [8]: 111%
viability, T/C [9]: 118%
viability, T/C (second compound 0.01 µM, first compound 3.16 µM): 119%
viability, T/C (second compound 0.01 µM, first compound 10 µM): 88.2%
viability, T/C [10]: 108%
viability, T/C [11]: 93.1%
viability, T/C [12]: 103%
viability, T/C [13]: 94.8%
viability, T/C (second compound 0.0316 µM, first compound 3.16 µM): 115%
viability, T/C (second compound 0.0316 µM, first compound 10 µM): 96.7%
viability, T/C [14]: 91.8%
viability, T/C [15]: 111%
viability, T/C [16]: 105%
viability, T/C [17]: 119%
viability, T/C (second compound 0.1 µM, first compound 3.16 µM): 97.4%
viability, T/C (second compound 0.1 µM, first compound 10 µM): 89.1%
viability, T/C [18]: 104%
viability, T/C [19]: 100%
viability, T/C [20]: 97.3%
viability, T/C [21]: 98.2%
viability, T/C (second compound 0.316 µM, first compound 3.16 µM): 106%
viability, T/C (second compound 0.316 µM, first compound 10 µM): 95.2%
viability, T/C [22]: 115%
viability, T/C [23]: 98.3%
viability, T/C [24]: 102%
viability, T/C [25]: 109%
viability, T/C (second compound 1 µM, first compound 3.16 µM): 113%
viability, T/C (second compound 1 µM, first compound 10 µM): 88.3%

IC50 (compound alone, run of 09/27/2022): > 3 µM
IC50 (curve of compound): > 3 µM
Structure (SMILES): CCN1C(C(=O)NC23CCC(C(=O)O)(CC2)CC3)C(c2cccc(Cl)c2F)C2(C(=O)Nc3cc(Cl)ccc32)C12CCCCC2 (configuration not stated)
viability, T/C (compound 0.00949 µM): 94.9% and 87.6%

The remaining lines, values behind:

Structure (SMILES): NC1CCC(NC2CC2c2ccccc2)CC1 (configuration not stated)
viability, T/C (compound 0.000316 µM): 63.1% and 63.5% and 88.5%
viability, T/C (compound 0.001 µM): 57% and 64.8% and 83.1%
viability, T/C (compound 0.00316 µM): 52.8% and 60% and 75.8%
viability, T/C (compound 0.01 µM): 68.5% and 49.6% and 95%
viability, T/C (compound 0.0316 µM): 58.5% and 56.5% and 90.8%
viability, T/C (compound 0.1 µM): 60% and 61.9% and 74%
IC50 (curve of compound): > 0.1 µM

Structure (SMILES): CCN1CCN(Cc2ccc(Nc3ncc(F)c(-c4cc(F)c5nc(C)n(C(C)C)c5c4)n3)nc2)CC1
viability, T/C (compound 0.00316 µM): 70.6% and 82.3% and 87.5%
viability, T/C (compound 0.01 µM): 72% and 65.5% and 92.3%
viability, T/C (compound 0.0316 µM): 54.5% and 79.2% and 78.5%
viability, T/C (compound 0.1 µM): 66.6% and 70.4% and 70.9%
viability, T/C (compound 0.316 µM): 74.6% and 71.2% and 91.2%
viability, T/C (compound 1 µM): 103% and 98.6% and 108%
IC50 (curve of compound): > 1 µM

Structure (SMILES): COc1c(OCCCN2CCOCC2)ccc2c3n(c(=NC(=O)c4cnc(N)nc4)nc12)CCN3 + CNC(C)C(=O)NC1CN(S(=O)(=O)c2cccc(S(=O)(=O)N3CCC4CCC(C(=O)NC(c5ccccc5)c5ccccc5)N4C(=O)C(NC(=O)C(C)NC)C3)c2)CCC2CCC(C(=O)NC(c3ccccc3)c3ccccc3)N2C1=O
IC50 [1]: 0.00804 µM
IC50 [2]: 0.021 µM
IC50 [3]: 0.00932 µM
IC50 [4]: 0.0149 µM
IC50 [5]: 0.0219 µM
viability, T/C (second compound 0.01 µM, first compound 0.00316 µM): 63.6%
viability, T/C (second compound 0.01 µM, first compound 0.01 µM): 42.8%
viability, T/C [6]: 38.4%
viability, T/C [7]: 25.5%
viability, T/C [8]: 17.9%
viability, T/C [9]: 11.8%
viability, T/C (second compound 0.0316 µM, first compound 0.00316 µM): 73.1%
viability, T/C (second compound 0.0316 µM, first compound 0.01 µM): 71.1%
viability, T/C [10]: 35%
viability, T/C [11]: 30%
viability, T/C [12]: 18%
viability, T/C [13]: 11.5%
viability, T/C [26]: 71.3%
viability, T/C [27]: 43.6%
viability, T/C [14]: 36.1%
viability, T/C [15]: 27.9%
viability, T/C [16]: 17.1%
viability, T/C [17]: 11.6%
viability, T/C [28]: 91%
viability, T/C [29]: 52.8%
viability, T/C [18]: 35.6%
viability, T/C [19]: 34.8%
viability, T/C [20]: 16.5%
viability, T/C [21]: 13.1%
viability, T/C [30]: 83.3%
viability, T/C [31]: 64.5%
viability, T/C [22]: 42.5%
viability, T/C [23]: 28.6%
viability, T/C [24]: 17.6%
viability, T/C [25]: 12.9%

Structure (SMILES): CCN1CCN(Cc2ccc(Nc3ncc(F)c(-c4cc(F)c5nc(C)n(C(C)C)c5c4)n3)nc2)CC1 + Cc1c(S(C)(=O)=O)c(-c2cc(F)cc(N3CCN(c4ccc(NS(=O)(=O)c5ccc(NC(CCN6CCC(C(=O)OCCCP(=O)(O)O)CC6)CSc6ccccc6)c(S(=O)(=O)C(F)(F)F)c5)cc4)CC3)c2)c(-c2ccc(Cl)cc2)n1C(C)C
IC50 [3]: 0.00316 µM
IC50 [4]: 0.00316 µM
IC50 [5]: > 1 µM
IC50 (curve of first compound, second compound 3.16 µM): > 1 µM
IC50 (curve of first compound, second compound 10 µM): > 1 µM
viability, T/C [26]: 86.2%
viability, T/C [27]: 34.5%
viability, T/C [14]: 42.2%
viability, T/C [15]: 48.3%
viability, T/C [16]: 73%
viability, T/C [17]: 87.6%
viability, T/C [28]: 69%
viability, T/C [29]: 61%
viability, T/C [18]: 41.4%
viability, T/C [19]: 46.5%
viability, T/C [20]: 77.7%
viability, T/C [21]: 92.8%
viability, T/C [30]: 77.5%
viability, T/C [31]: 56.5%
viability, T/C [22]: 59.6%
viability, T/C [23]: 50.7%
viability, T/C [24]: 65.6%
viability, T/C [25]: 114%
viability, T/C (second compound 3.16 µM, first compound 0.00316 µM): 58%
viability, T/C (second compound 3.16 µM, first compound 0.01 µM): 50.1%
viability, T/C (second compound 3.16 µM, first compound 0.0316 µM): 43.8%
viability, T/C (second compound 3.16 µM, first compound 0.1 µM): 61.4%
viability, T/C (second compound 3.16 µM, first compound 0.316 µM): 74.3%
viability, T/C (second compound 3.16 µM, first compound 1 µM): 88.4%
viability, T/C (second compound 10 µM, first compound 0.00316 µM): 171%
viability, T/C (second compound 10 µM, first compound 0.01 µM): 111%
viability, T/C (second compound 10 µM, first compound 0.0316 µM): 120%
viability, T/C (second compound 10 µM, first compound 0.1 µM): 179%
viability, T/C (second compound 10 µM, first compound 0.316 µM): 162%
viability, T/C (second compound 10 µM, first compound 1 µM): 142%
